Reference: patent US9994547B2, “Heteroarylamide inhibitors of TBK1” (Takeda Pharmaceutical Company Limited, priority 2014, dated 2018)

Each molecule was assayed against Full length human TBK1 (Homo sapiens (Human), UniProt Q9UHD2) (assay: Inhibition of TBK1 Enzyme (Example A)). Details: -log(IC50), IC50 molar; 3 nM TBK1, 25 μM ATP, 60 min RT.
Type: biochemical
Protocol: Full length human TBK1 with an N-terminal His-tag was cloned into the pFastBacl vector and was transfected into Sf9 cells. 72 hours later the virus was harvested and amplified through two additional rounds of infections. Then 400 mL of the resulting virus stock was used to infect 10 L of Sf9 cells at a density of 2×10^6 cells/mL. Cell pellets were harvested 48 hours post infection and were lysed by freeze-thaw, homogenization and sonication in binding buffer (25 mM Tris pH7.6, 1 M NaCl, 10 mM imidazole, 0.5 mM TCEP) plus 0.1% Triton X-100 and complete protease inhibitor cocktail. The lysate was spun and the supernatant was purified with a HisTrap FF crude and a Superdex 200 pg column.
TBK1 inhibition is determined using a 384 well plate format in buffer containing 20 mM Hepes, pH 7.4, 10 mM MgCl2, 1 mM EDTA, 0.01% Brij-L23, 1 mM DTT. Each test compound is prepared in DMSO using 2.5-fold serial dilutions for 11 data points, which are added to the buffer so that each dilution contains 1% DMSO. To each well is added 2 μL of 1 μM 5FAM-DRHDSGLDSMKDE-NH2 (in buffer), 2 μL of diluted test compound (1% DMSO in buffer), and 5 μL of 3 nM TBK1 and 25 μM ATP (in buffer). The reaction mixture is incubated at RT for 60 min, and quenched by adding 20 mM Hepes, pH 7.4, 10 mM MgCl2, 1 mM EDTA, 0.01% Brij-L23, 1 mM DTT+25 mM EDTA. To quantify the fluorescent-labeled substrate and product following reaction, the test plate is loaded on a Caliper LC-3000, which measures percent of conversion by microfluidic-based separation. Corresponding IC50 values are calculated by non-linear curve fitting of the compound concentrations and percent of inhibition to the standard IC50 equation and reported as pIC50, i.e., −log(IC50), where IC50 is the molar concentration.

Chain of Full length human TBK1 (Q9UHD2 whole entry): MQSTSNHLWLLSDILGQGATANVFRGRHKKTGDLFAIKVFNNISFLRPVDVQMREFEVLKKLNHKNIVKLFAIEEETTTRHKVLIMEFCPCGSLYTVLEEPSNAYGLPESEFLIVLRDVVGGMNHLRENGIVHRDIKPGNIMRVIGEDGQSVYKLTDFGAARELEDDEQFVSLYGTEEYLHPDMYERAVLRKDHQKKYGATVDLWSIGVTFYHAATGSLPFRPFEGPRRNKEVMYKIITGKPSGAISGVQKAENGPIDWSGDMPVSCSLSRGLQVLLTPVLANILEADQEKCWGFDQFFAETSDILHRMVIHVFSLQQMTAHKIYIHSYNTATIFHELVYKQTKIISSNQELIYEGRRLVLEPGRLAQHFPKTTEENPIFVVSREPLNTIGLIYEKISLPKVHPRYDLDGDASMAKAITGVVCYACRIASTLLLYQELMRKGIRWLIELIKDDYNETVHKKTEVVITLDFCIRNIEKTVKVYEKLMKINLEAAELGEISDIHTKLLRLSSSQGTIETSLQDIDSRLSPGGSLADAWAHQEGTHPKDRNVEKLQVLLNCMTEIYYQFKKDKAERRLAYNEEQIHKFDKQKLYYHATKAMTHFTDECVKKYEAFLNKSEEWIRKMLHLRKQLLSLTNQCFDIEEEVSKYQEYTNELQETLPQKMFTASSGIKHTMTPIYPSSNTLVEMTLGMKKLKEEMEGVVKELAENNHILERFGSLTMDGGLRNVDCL

Row | SMILES | TBK1 Inhibition (pIC50)
1 | CN(CC(F)F)C(=O)[C@H](CO)Nc1cc(-c2cnc(NC(=O)C3CC3)cn2)cnc1C#N [Example 58, (S)-N-(5-(6-cyano-5-((1-((2,2-difluoroethyl)(methyl)amino)-3-hydroxy-1-oxopropan-2-yl)amino)pyridin-3-yl)pyrazin-2-yl)cyclopropanecarboxamide] | 7.3
2 | CC(C#N)NC(=O)CNc1cc(-c2cnc(NC(=O)C3CC3)cn2)cnc1C#N (stereo not drawn) [Example 59, N-(5-(6-cyano-5-((2-((1-cyanoethyl)amino)-2-oxoethyl)amino)pyridin-3-yl)pyrazin-2-yl)cyclopropanecarboxamide] | 6.7
3 | N#Cc1ncc(-c2cnc(NC(=O)C3CC3)cn2)cc1NCC(=O)N1CCOCC1C#N (stereo not drawn) [Example 63, N-(5-(6-cyano-5-((2-(3-cyanomorpholino)-2-oxoethyl)amino)pyridin-3-yl)pyrazin-2-yl)cyclopropanecarboxamide] | 7.2
4 | CN(CCC#N)C(=O)CNc1cc(-c2cnc(NC(=O)C3CC3)cn2)cnc1C#N [Example 65, N-(5-(6-cyano-5-((2-((2-cyanoethyl)(methyl)amino)-2-oxoethyl)amino)pyridin-3-yl)pyrazin-2-yl)cyclopropanecarboxamide] | 6.9
5 | CN(CCS(C)(=O)=O)C(=O)CNc1cc(-c2cnc(NC(=O)C3CC3)cn2)cnc1C#N [Example 66, N-(5-(6-cyano-5-((2-(methyl(2-(methylsulfonyl)ethyl)amino)-2-oxoethyl)amino)pyridin-3-yl)pyrazin-2-yl)cyclopropanecarboxamide] | 6.6
6 | C[C@H](Nc1cc(-c2cnc(NC(=O)C3CC3)cn2)cnc1C#N)C(=O)N(C)CCN(C)C [Example 67, (S)-N-(5-(6-cyano-5-((1-((2-(dimethylamino)ethyl)(methyl)amino)-1-oxopropan-2-yl)amino)pyridin-3-yl)pyrazin-2-yl)cyclopropanecarboxamide] | 6.3
7 | CN(C)C(=O)C(CC(F)F)Nc1cc(-c2cnc(NC(=O)C3CC3)cn2)cnc1C#N (stereo not drawn) [Example 68, N-(5-(6-cyano-5-((1-(dimethylamino)-4,4-difluoro-1-oxobutan-2-yl)amino)pyridin-3-yl)pyrazin-2-yl)cyclopropanecarboxamide] | 7.4
8 | CC(C#N)N(C)C(=O)[C@H](C)Nc1cc(-c2cnc(NC(=O)C3CC3)cn2)cnc1C#N (stereo partly drawn) [Example 69, N-(5-(6-cyano-5-(((2S)-1-((1-cyanoethyl)(methyl)amino)-1-oxopropan-2-yl)amino)pyridin-3-yl)pyrazin-2-yl)cyclopropanecarboxamide] | 7.7

Further lines, results first:

Row | TBK1 Inhibition (pIC50) | SMILES
9 | 7.4 | C[C@H](Nc1cc(-c2cnc(NC(=O)C3CC3)cn2)cnc1C#N)C(=O)N1CCO[C@@H]1C(F)(F)F [Example 60, N-(5-(6-cyano-5-((S)-1-oxo-1-((R)-2-(trifluoromethyl)oxazolidin-3-yl)propan-2-ylamino)pyridin-3-yl)pyrazin-2-yl)cyclopropanecarboxamide]
10 | 6.0 | C[C@H](Nc1cc(-c2cnc(NC(=O)C3CC3)cn2)cnc1C#N)C(=O)N1CCO[C@H]1C(F)(F)F [Example 61, N-(5-(6-cyano-5-((S)-1-oxo-1-((S)-2-(trifluoromethyl)oxazolidin-3-yl)propan-2-ylamino)pyridin-3-yl)pyrazin-2-yl)cyclopropanecarboxamide]
11 | 6.6 | CC(C#N)NC(=O)[C@H](C)Nc1cc(-c2cnc(NC(=O)C3CC3)cn2)cnc1C#N (stereo partly drawn) [Example 62, N-(5-(6-cyano-5-(((2S)-1-((1-cyanoethyl)amino)-1-oxopropan-2-yl)amino)pyridin-3-yl)pyrazin-2-yl)cyclopropanecarboxamide]
12 | 7.5 | N#Cc1ncc(-c2cnc(NC(=O)C3CC3)cn2)cc1NCC(=O)N1CCOC1C(F)(F)F (stereo not drawn) [Example 64, N-(5-(6-cyano-5-((2-oxo-2-(2-(trifluoromethyl)oxazolidin-3-yl)ethyl)amino)pyridin-3-yl)pyrazin-2-yl)cyclopropanecarboxamide]
